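Growth conditions: 96-well plates. Treatment: test compound, 48 hours, 5 concentrations. Analysis: linear interpolation between bracketing concentrations; unreached endpoints set to highest concentration. GI50 marks 50% less growth.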 The source made the active and inactive calls. No stated cut-off is given here; in the data, active = GI50 up to about 1.1 µM and inactive = higher.
How the values were obtained:
Assay in all cases: NCI anticancer screen, dose series, 48 h
Malme-3M = tested on: Malme-3M
EKVX = tested on: EKVX
UO-31 = tested on: UO-31
RXF 393 = tested on: RXF 393
UACC-257 = tested on: UACC-257
HCT-15 = tested on: HCT-15
LOX IMVI = tested on: LOX IMVI
OVCAR-3 = tested on: OVCAR-3
SK-MEL-28 = tested on: SK-MEL-28
IGROV-1 = tested on: IGROV-1
HOP-62 = tested on: HOP-62
OVCAR-5 = tested on: OVCAR-5
786-0 = tested on: 786-0
NCI-H23 = tested on: NCI-H23
SW-620 = tested on: SW-620
OVCAR-8 = tested on: OVCAR-8
RPMI-8226 = tested on: RPMI-8226

Row | SMILES | GI50 (Malme-3M) | GI50 (EKVX) | GI50 (UO-31) | GI50 (RXF 393) | GI50 (UACC-257) | GI50 (HCT-15) [µM] | GI50 (LOX IMVI) | GI50 (OVCAR-3) | GI50 (SK-MEL-28) | GI50 (IGROV-1) | GI50 (HOP-62) | GI50 (OVCAR-5) | GI50 (786-0) | GI50 (NCI-H23) | GI50 (SW-620) | GI50 (OVCAR-8) | GI50 (RPMI-8226)
1 | CC(=O)OCCc1cccnc1/C=N/O | > 100 µM (inactive) | > 100 µM (inactive) | > 100 µM (inactive) | > 100 µM (inactive) | > 100 µM (inactive) | > 100 | > 100 µM (inactive) | > 100 µM (inactive) | > 100 µM (inactive) | > 100 µM (inactive) | > 100 µM (inactive) | > 100 µM (inactive) | > 100 µM (inactive) | > 100 µM (inactive) | > 100 µM (inactive) | > 100 µM (inactive) | 
2 | COc1cc(-c2cc(-c3cc([N+](=O)[O-])c(/C=N/NC(=O)c4ccncc4)o3)ccc2OC)ccc1C | > 100 µM (inactive) | > 100 µM (inactive) |  | > 100 µM (inactive) | > 100 µM (inactive) |  | > 100 µM (inactive) | > 100 µM (inactive) | > 100 µM (inactive) | > 100 µM (inactive) | > 100 µM (inactive) | > 100 µM (inactive) | > 100 µM (inactive) | > 100 µM (inactive) | > 100 µM (inactive) |  | > 100 µM (inactive)
3 | C=CSCCC(N)C(=O)O (stereo not drawn) | > 100 µM (inactive) | > 100 µM (inactive) | > 100 µM (inactive) | > 100 µM (inactive) | > 100 µM (inactive) | > 100 | > 100 µM (inactive) | > 100 µM (inactive) | > 100 µM (inactive) | > 100 µM (inactive) | > 100 µM (inactive) | > 100 µM (inactive) | > 100 µM (inactive) | > 100 µM (inactive) | > 100 µM (inactive) | > 100 µM (inactive) | 
4 | CC(=O)Nc1ccc(S(=O)(=O)N/N=C/c2cc(I)cc([N+](=O)[O-])c2O)cc1 | 46.3 µM (inactive) | 60.5 µM (inactive) | 33.3 µM (inactive) | 21.5 µM (inactive) | > 100 µM (inactive) | 75.5 | 80.9 µM (inactive) | > 100 µM (inactive) | 25.2 µM (inactive) | > 100 µM (inactive) |  | > 100 µM (inactive) | > 100 µM (inactive) | 29.5 µM (inactive) | > 100 µM (inactive) | > 100 µM (inactive) | 36.6 µM (inactive)
5 | COc1cc(O)c(C(=O)/C=C/c2ccc(OC)c(OCc3ccccc3)c2)c(OC)c1 |  | > 100 µM (inactive) | > 100 µM (inactive) | 5.21 µM (inactive) | > 100 µM (inactive) | 10.3 | 33.7 µM (inactive) | 38.5 µM (inactive) |  | > 100 µM (inactive) | > 100 µM (inactive) | > 100 µM (inactive) | > 100 µM (inactive) | 6.52 µM (inactive) | 36.5 µM (inactive) | 6.84 µM (inactive) | 5.86 µM (inactive)
6 | CC1=CC(=O)C(=O)C2=C1OC1(C2)C(C)CCC2C3(C)CCC(O)C(C)(C)C3CCC21C (stereo not drawn) | 19.8 µM (inactive) |  | 18.4 µM (inactive) | 15.3 µM (inactive) | 18.9 µM (inactive) | 19.4 | 16.7 µM (inactive) | 18.6 µM (inactive) | 20.5 µM (inactive) | 17.6 µM (inactive) | 19.2 µM (inactive) | 18.2 µM (inactive) | 17.4 µM (inactive) | 15.8 µM (inactive) | 22.1 µM (inactive) | 19.5 µM (inactive) | 23.6 µM (inactive)
7 | COC(=O)[C@@]12OC[C@]34C([C@@H](O)C1O)[C@@]1(C)CC(=O)C(O)=C(C)C1C[C@H]3OC(=O)[C@H](OC(=O)CC(C)C(F)(F)F)[C@H]42 (stereo partly drawn) | 0.0101 µM (active) | 0.128 µM (active) | 0.149 µM (active) | 0.0912 µM (active) | 0.0759 µM (active) | 0.166 |  |  | 0.0121 µM (active) | 0.0168 µM (active) | 0.0989 µM (active) | 0.146 µM (active) | 0.0646 µM (active) | 0.0126 µM (active) | 0.022 µM (active) | 0.0574 µM (active) | 0.0116 µM (active)
8 | CCN1/C(=C/C(C)=C/c2sc3ccccc3[n+]2CC)Sc2ccccc21 | 0.37 µM (active) | 0.0885 µM (active) | 0.0811 µM (active) | 0.273 µM (active) |  | 0.395 | 0.135 µM (active) | 0.172 µM (active) | 0.0285 µM (active) | 0.279 µM (active) | 0.122 µM (active) | 0.431 µM (active) | 0.418 µM (active) | 0.0415 µM (active) | 0.122 µM (active) | 0.0948 µM (active) | 0.0223 µM (active)
9 | O=c1cc(-c2ccc(O)cc2)oc2cc(O)cc(O)c12 [APIGENIN] | 33.9 µM (inactive) | 33.5 µM (inactive) | 23.9 µM (inactive) |  | 30.8 µM (inactive) | 28.1 | 21.4 µM (inactive) | 24.2 µM (inactive) | 20.3 µM (inactive) | 28.6 µM (inactive) | 43.6 µM (inactive) | 30.5 µM (inactive) | 34.3 µM (inactive) | 17.8 µM (inactive) |  |  | 37.7 µM (inactive)
